Data set [1] has as its target T1, Nonstructural protein 5 (Dengue virus, UniProt V5TFZ2). As to the kind of experiment: Inhibition of DENV3 NS5 RdRp using ss-RNA PolyC as template and GTP as substrate assessed as decrease in dsRNA levels after 1 hr by PicoGreen-based fluorescence assay. More on the design: species or system dengue virus type 3.
The target of data set [2] is T1, Nonstructural protein 5. As to the kind of experiment: Inhibition of DENV3 full length NS5 RdRp assessed as decrease in dsRNA levels preincubated for 20 mins followed by ss-RNA and ATTO-CTP, ATP, GTP and UTP addition measured after 120 mins by FAPA assay. More on the design: species or system dengue virus type 3.
Data set [3] in a line: Induction of colloidal aggregate formation in aqueous medium at 50 uM measured for 5 mins by light scattering-based photon correlation spectroscopy. Format: physicochemical. The settings on record: buffer.
Data set [4] concerns the target T1, Nonstructural protein 5. As to the kind of experiment: Mixed type inhibition of DENV3 NS5 RdRp using increasing concentration of ss-RNA PolyC as template assessed as enzyme-substrate complex after 1 hr in presence of GTP substrate by Lineweaver-Burk double reciprocal plot analysis. More on the design: species or system dengue virus type 3.
Data set [5] is described as follows: Cytotoxicity against African green monkey Vero E6 cells by Cell Titer-blue method. In kind it is cell-based, Vero C1008. Particulars: chlorocebus sabaeus; call rule not given here.
Data set [6] concerns the target T1, Nonstructural protein 5. As to the kind of experiment: Binding affinity to DENV3 NT-647-NHS labeled NS5 RdRp after 1 hr by microscale thermophoresis method. Further details: species or system dengue virus type 3. (In general: In MST a laser heats a spot of the sample, and binding alters the fluorescence response.)
The target in data set [7] is T1, Nonstructural protein 5. Description: Mixed type inhibition of DENV3 NS5 RdRp using increasing concentration of ss-RNA PolyC as template assessed as free enzyme after 1 hr in presence of GTP substrate by Lineweaver-Burk double reciprocal plot analysis. More on the design: species or system dengue virus type 3.
The target of data set [8] is T1, Nonstructural protein 5. As to the kind of experiment: Mixed type inhibition of DENV3 NS5 RdRp using increasing concentration of GTP as substrate assessed as enzyme-substrate complex after 1 hr in presence of ss-RNA PolyC template by Lineweaver-Burk double reciprocal plot analysis. Further details: species or system dengue virus type 3.
Data set [9] deals with T1, Nonstructural protein 5. Description: Mixed type inhibition of DENV3 NS5 RdRp using increasing concentration of GTP as substrate assessed as free enzyme after 1 hr in presence of ss-RNA PolyC template by Lineweaver-Burk double reciprocal plot analysis. Further details: species or system dengue virus type 3.

The structures appear in SMILES notation.

T1 sequence (V5TFZ2 whole entry): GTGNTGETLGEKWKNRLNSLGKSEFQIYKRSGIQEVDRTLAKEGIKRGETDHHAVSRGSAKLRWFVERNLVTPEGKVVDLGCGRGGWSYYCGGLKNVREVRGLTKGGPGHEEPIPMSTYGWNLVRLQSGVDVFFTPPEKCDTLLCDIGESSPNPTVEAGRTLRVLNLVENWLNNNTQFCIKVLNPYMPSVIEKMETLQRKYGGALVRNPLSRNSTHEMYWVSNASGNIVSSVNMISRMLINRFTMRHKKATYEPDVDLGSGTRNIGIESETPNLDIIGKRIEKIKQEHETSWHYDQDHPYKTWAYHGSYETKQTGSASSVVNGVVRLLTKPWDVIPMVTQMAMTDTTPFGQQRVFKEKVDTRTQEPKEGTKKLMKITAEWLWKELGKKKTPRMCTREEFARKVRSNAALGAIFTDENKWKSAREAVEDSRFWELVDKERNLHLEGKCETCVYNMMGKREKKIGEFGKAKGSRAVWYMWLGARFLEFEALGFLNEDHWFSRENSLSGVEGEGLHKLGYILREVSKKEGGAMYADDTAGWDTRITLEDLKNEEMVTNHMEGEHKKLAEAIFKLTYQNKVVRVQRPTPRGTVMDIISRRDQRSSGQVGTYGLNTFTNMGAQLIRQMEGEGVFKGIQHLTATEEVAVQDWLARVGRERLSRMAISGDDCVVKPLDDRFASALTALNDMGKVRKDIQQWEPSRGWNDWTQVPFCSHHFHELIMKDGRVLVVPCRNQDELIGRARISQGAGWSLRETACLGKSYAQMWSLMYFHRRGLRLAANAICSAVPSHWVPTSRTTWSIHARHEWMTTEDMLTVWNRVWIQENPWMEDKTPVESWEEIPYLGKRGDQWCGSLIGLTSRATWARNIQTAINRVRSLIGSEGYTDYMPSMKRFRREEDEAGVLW

The term IC50 denotes the concentration needed to halve the response being measured. Consider `CN1c2c(C(=O)Nc3ccc(NS(C)(=O)=O)cc3)nn(-c3cccc(F)c3)c2-c2ccccc2S1(=O)=O`, for which the IC50 on Nonstructural protein 5 [1] worked out at 17.3 µM. Take `CN1c2c(C(=O)Nc3ccc(NS(C)(=O)=O)cc3)nn(-c3ccc(Cl)cc3)c2-c2ccccc2S1(=O)=O`: the IC50 at Nonstructural protein 5 [1] came to 13.6 µM. Take `Cc1ccc(-n2nc(C(=O)Nc3ccc(NS(C)(=O)=O)cc3)c3c2-c2ccccc2S(=O)(=O)N3C)cc1`: the IC50 at Nonstructural protein 5 [1] came to 14.1 µM. Turning to `CCOC1=CS(=O)(=O)Nc2ccc(Oc3ccccc3Br)cc21`, the IC50 on Nonstructural protein 5 [1] came to 41.5 µM.

On to `CC(C)(C)c1cccc(Oc2ccc3c(c2)C(OC(=O)c2ccccc2)=CS(=O)(=O)N3)c1`, for which the IC50 at Nonstructural protein 5 [1] came to 15.8 µM. Still for that read-out and setting: under `CN1c2ccc(Oc3cccc(Br)c3)cc2C(OC(=O)c2ccccc2)=CS1(=O)=O` stands 2.6 µM; under `O=C(OC1=CS(=O)(=O)Nc2ccc(Oc3cccc(Br)c3)cc21)c1ccccc1`, 7 µM; under `COC1=CS(=O)(=O)N(C(=O)c2ccccc2)c2ccc(Oc3ccccc3Br)cc21`, 46.2 µM. The same measure, in the same setting: the result for `CCc1cccc(Oc2ccc3c(c2)C(OC(=O)c2ccccc2)=CS(=O)(=O)N3)c1` reads 6.9 µM; that for `COc1ccc(C(=O)OC2=CS(=O)(=O)Nc3ccc(Oc4cccc(Br)c4)cc32)cc1[N+](=O)[O-]`, 4.7 µM.

On to `O=C(O)c1cc(Oc2cccc(Br)c2)ccc1NS(=O)(=O)c1ccc([N+](=O)[O-])cc1`, for which the IC50 on Nonstructural protein 5 [1] amounted to 1.7 µM. With `COc1cc(C)c(C(=O)NS(=O)(=O)c2cccc3cccnc23)cc1-c1ccc(C#CCO)s1`, the IC50 on Nonstructural protein 5 [2] stood at 0.016 µM.

With `O=C(OC1=CS(=O)(=O)Nc2ccc(Oc3ccc(Br)cc3)cc21)c1ccccc1`, at Nonstructural protein 5 [1], the IC50 is 4.7 µM. The same measure, in the same setting: under `COc1ccc(C(=O)OC2=CS(=O)(=O)Nc3ccc(Oc4ccccc4Br)cc32)cc1[N+](=O)[O-]` stands 6.3 µM. As for `O=C1CCN(C(=O)c2ccccc2)c2ccc(Oc3ccccc3Br)cc21`, on Nonstructural protein 5 [1], the IC50 is greater than 50 µM.

In the case of `O=C(OC1=CS(=O)(=O)Nc2ccc(Oc3ccccc3Br)cc21)c1ccccc1`, the half-inhibitory concentration (IC50) at Nonstructural protein 5 [1] turned out to be 30.8 µM. Turning to `COC1=CS(=O)(=O)Nc2ccc(Oc3ccccc3Br)cc21`, the half-maximal inhibitory concentration (IC50) on Nonstructural protein 5 [1] was greater than 50 µM. In general, Ki refers to the dissociation constant of the complex between target and ligand, obtained from inhibition or displacement. What is called CC50 is the concentration giving 50% cytotoxicity. In general, Kd refers to the constant that tells how readily two partners part at equilibrium. Consider `O=C(OC1=CS(=O)(=O)Nc2ccc(Oc3ccccc3Br)cc21)c1ccc(F)c(F)c1`, for which, in data set [3], the Activity result is reported as “Not Active”. Besides, the Ki at Nonstructural protein 5 [4] worked out at 4.33 µM; at Nonstructural protein 5 [7] it was 1.54 µM; on Nonstructural protein 5 [8] it was 1.58 µM; at Nonstructural protein 5 [9], 0.252 µM. Further, half-maximal cytotoxicity in data set [5] (CC50) was put at 80 µM. On Nonstructural protein 5 [6], binding was characterised by a dissociation constant (Kd) of 1.1 µM. Moreover, the IC50 at Nonstructural protein 5 [1] is 0.6 µM.

With `O=C(OC1=CS(=O)(=O)Nc2ccc(Oc3cccc(Br)c3)cc21)c1cccc([N+](=O)[O-])c1`, on Nonstructural protein 5 [1], the IC50 came to 8.4 µM. The same measure, in the same setting: under `O=C(O)c1cc(Oc2cccc(Br)c2)ccc1NS(=O)(=O)c1ccccc1` stands 4.5 µM; under `O=C1CS(=O)(=O)N(C(=O)c2ccccc2)c2ccc(Oc3ccccc3Br)cc21`, 11.4 µM. As for `COc1cccc(Oc2ccc3c(c2)C(OC(=O)c2ccccc2)=CS(=O)(=O)N3)c1`, the IC50 on Nonstructural protein 5 [1] is 20.3 µM. Still for that read-out and setting: under `O=C(OC1=CS(=O)(=O)Nc2ccc(Oc3cccc(Br)c3)cc21)c1ccc(F)c(F)c1` stands 0.9 µM; under `O=C(OC1=CS(=O)(=O)Nc2ccc(Oc3cccc(F)c3)cc21)c1ccccc1`, 7 µM.

(Values after ChEMBL document CHEMBL4251565, “Functionalized 2,1-benzothiazine 2,2-dioxides as new inhibitors of Dengue NS5 RNA-dependent RNA polymerase” (Eur J Med Chem, 2018).)
